# From US8586551B2, “18-membered macrocycles and analogs thereof” (Optimer Pharmaceuticals, Inc., priority 2005, dated 2013)
# Tests used:
# Type in all cases: cell-based
# Clostridium difficile [1] = experiment: MIC against anaerobes: Clostridium difficile; settings: Clostridium difficile (21)
# Experimental: (§1) The in vitro activity of OPT-80 was determined against 350 anaerobes. The experimental procedure for which is outlined in Antimicrobial Agents and Chemotherapy, 2004, 48: 4430-4434, which is hereby incorporated by reference in its entirety.
# (§2) All organisms, including the 21 C. difficile strains, were separate isolates and not clonally related. All quality-control gram-negative and -positive strains recommended by NCCLS were included with each run: in every case, results (where available) were in range.
# Clostridium spp. (all) = experiment: MIC against anaerobes: Clostridium spp. (all)
# Experimental: as §1, §2
# [2] = tested on: Peptostreptococcus tetradius; experiment: MIC against anaerobes: Peptostreptococcus tetradius; settings: Peptostreptococcus tetradius (16)
# All Clostridium species = experiment: MIC against intestinal bacteria: all Clostridium species; settings: All Clostridium species (107)
# Clostridium difficile [3] = experiment: MIC against intestinal bacteria: Clostridium difficile; settings: Clostridium difficile (23)
# Experimental: (§3) The in vitro activity of OPT-80 against intestinal bacteria was evaluated. The experimental procedure for which is outlined in Antimicrobial Agents and Chemotherapy, 2004, 48: 4898-4902, which is hereby incorporated by reference in its entirety.
# (§4) Antimicrobial concentration ranges were selected to encompass or surpass the levels that would be achieved in the gut (to the extent that this information is available), subject to the limitations of solubility of the drugs in the testing medium. The range of concentration of OPT-80 used during testing was 0.03 μg/ml to 1024 μg/ml.
# (§5) For analysis, the bacteria tested were generally placed into genus, species, or other groups with at least 10 isolates. The ranges and the MICs at which 50 and 90% of isolates were inhibited were determined except for organisms with fewer than 10 strains tested, for which only the ranges are reported (Table 8).
# [4] = tested on: Anaerobic non-spore-forming gram-positive rods; experiment: MIC against intestinal bacteria: anaerobic non-spore-forming gram-positive rods
# Enterococcus species = experiment: MIC against intestinal bacteria: Enterococcus species; settings: Enterococcus species (21)
# Clostridium perfringens = Clostridium perfringens (14)
# [5] = tested on: Streptococcus, formerly S. milleri group; experiment: MIC against intestinal bacteria: Streptococcus, formerly S. milleri group
# [6] = tested on: Peptostreptococcus anaerobius; experiment: MIC against anaerobes: Peptostreptococcus anaerobius; settings: Peptostreptococcus anaerobius (15)
# Clostridium tertium = experiment: MIC against anaerobes: Clostridium tertium; settings: Clostridium tertium (10)
# [7] = tested on: Non-fragilis B. fragilis group species; experiment: MIC against anaerobes: non-fragilis B. fragilis group; settings: Bacteroides fragilis; Non-fragilis B. fragilis group species (38)
# Experimental: as §1, §2
# Finegoldia magna = experiment: MIC against anaerobes: Finegoldia magna; settings: Finegoldia magna (15)
# [8] = tested on: Other anaerobic gram-negative rods; experiment: MIC against intestinal bacteria: other anaerobic gram-negative rods
# Propionibacterium acnes = experiment: MIC against anaerobes: Propionibacterium acnes; settings: Propionibacterium acnes (20)
# Fusobacterium nucleatum = experiment: MIC against anaerobes: Fusobacterium nucleatum; settings: Fusobacterium nucleatum (14)
# Experimental: as §1, §2
# [9] = tested on: Staphylococcus aureus and Staphylococcus epidermidis; experiment: MIC against intestinal bacteria: Staphylococcus aureus and Staphylococcus epidermidis; settings: Staphylococcus aureus and Staphylococcus epidermidis (19)
# Clostridium sordellii = experiment: MIC against intestinal bacteria: Clostridium sordellii; settings: Clostridium sordellii (5)
# Experimental: as §3, §4, §5
# Veillonella spp. = experiment: MIC against intestinal bacteria: Veillonella; settings: Veillonella spp. (10)
# Experimental: as §3, §4, §5
# Clostridium innocuum = experiment: MIC against intestinal bacteria: Clostridium innocuum; settings: Clostridium innocuum (9)
# Experimental: as §3, §4, §5
# Fusobacterium mortiferum = experiment: MIC against anaerobes: Fusobacterium mortiferum; settings: Fusobacterium mortiferum (10)
# Experimental: as §1, §2
# Clostridium species = experiment: MIC against anaerobes: Clostridium species; settings: Clostridium species (19)
# Experimental: as §1, §2
# [10] = tested on: All anaerobic gram-negative species; experiment: MIC against intestinal bacteria: all anaerobic gram-negative species
# Eggerthella lenta = experiment: MIC against anaerobes: Eggerthella lenta; settings: Eggerthella lenta (10)
# [11] = tested on: Peptostreptococcus asaccharolyticus; experiment: MIC against anaerobes: Peptostreptococcus asaccharolyticus; settings: Peptostreptococcus asaccharolyticus (15)
# [12] = tested on: Clostridium paraputrificum; experiment: MIC against intestinal bacteria: Clostridium paraputrificum; settings: Clostridium paraputrificum (8)
# Bacteroides fragilis = experiment: MIC against anaerobes: Bacteroides fragilis; settings: Bacteroides fragilis (19)
# Experimental: as §1, §2
# [13] = tested on: Anaerobic gram-positive cocci; experiment: MIC against intestinal bacteria: anaerobic gram-positive cocci; settings: Anaerobic gram-positive cocci (49)
# Clostridium glycolicum = experiment: MIC against intestinal bacteria: Clostridium glycolicum; settings: Clostridium glycolicum (9)
# [14] = tested on: Clostridium clostridioforme; experiment: MIC against intestinal bacteria: Clostridium clostridioforme; settings: Clostridium clostridioforme (4)
# Experimental: as §3, §4, §5
structure (smiles),measurement,setting,value
"CCc1c(Cl)c(O)c(Cl)c(O)c1C(=O)O[C@H]1[C@H](O)[C@H](OC)[C@H](OCC2=CC=CC[C@H](O)C(C)=C[C@H](CC)[C@@H](O[C@@H]3OC(C)(C)[C@@H](OC(=O)C(C)C)[C@H](O)[C@@H]3O)C(C)=CC(C)=CC[C@@H]([C@@H](C)O)OC2=O)O[C@@H]1C [R-Tiacumicin B, 3-[[[6-Deoxy-4-O-(3,5-dichloro-2-ethyl-4,6-dihydroxybenzoyl)-2-O-methyl-β-D-mannopyranosyl]oxy]-methyl]-12(R)-[[6-deoxy-5-C-methyl-4-O-(2-methyl-1-oxopropyl)-β-D-lyxo-hexopyranosyl]oxy]-11(S)-ethyl-8(S)-hydroxy-18(S)-(1(R)-hydroxyethyl)-9,13,15-trimethyloxacyclooctadeca-3,5,9,13,15-pentaene-2-one]",MIC50,Clostridium difficile [1]; Clostridioides difficile,< 0.016 µg/mL
same,MIC90,Clostridium difficile [1]; Clostridioides difficile,0.125 µg/mL
same,MIC range,Clostridium difficile [1],<0.016 to 0.25 µg/mL
same,MIC50,Clostridium spp. (all),< 0.016 µg/mL
same,MIC90,Clostridium spp. (all),0.06 µg/mL
same,MIC50,[2]; Anaerococcus tetradius,1 µg/mL
same,MIC90,[2]; Anaerococcus tetradius,1 µg/mL
same,MIC range,[2],0.25 to 2.0 µg/mL
same,MIC50,All Clostridium species,0.062 µg/mL
same,MIC90,All Clostridium species,128 µg/mL
same,MIC50,Clostridium difficile [3]; Clostridioides difficile,0.12 µg/mL
same,MIC90,Clostridium difficile [3]; Clostridioides difficile,0.25 µg/mL
same,MIC range,Clostridium difficile [3],0.06 to 2 µg/mL
same,MIC90,[4],32 µg/mL
same,MIC50,[4]; Anaerobic non-spore-forming gram-positive rods (63),1 µg/mL
same,MIC50,Enterococcus species,8 µg/mL
same,MIC90,Enterococcus species,8 µg/mL
same,MIC range,Enterococcus species,2.0 to 16 µg/mL
same,MIC range,Clostridium perfringens,0.06 µg/mL
same,MIC50,[5],32 µg/mL
same,MIC90,[5],32 µg/mL
same,MIC range,[5]; formerly S. milleri group (14),16 to 64 µg/mL
same,MIC50,[6],< 0.016 µg/mL
same,MIC90,[6],< 0.016 µg/mL
same,MIC range,[6],<0.016 to 0.03 µg/mL
same,MIC50,Clostridium tertium,< 0.016 µg/mL
same,MIC90,Clostridium tertium,0.03 µg/mL
same,MIC range,Clostridium tertium,<0.016 to 0.06 µg/mL
same,MIC50,[7],> 128 µg/mL
same,MIC90,[7],> 128 µg/mL
same,MIC50,Finegoldia magna,1 µg/mL
same,MIC90,Finegoldia magna,1 µg/mL
same,MIC range,Finegoldia magna,0.25 to 2.0 µg/mL
same,MIC50,[8],1020 µg/mL
same,MIC90,[8],> 1020 µg/mL
same,MIC range,[8]; Other anaerobic gram-negative rods (51),0.06 to 1024 µg/mL
same,MIC50,Propionibacterium acnes; Cutibacterium acnes,4 µg/mL
same,MIC90,Propionibacterium acnes; Cutibacterium acnes,4 µg/mL
same,MIC range,Propionibacterium acnes,0.5 to 1.0 µg/mL
same,MIC50,Fusobacterium nucleatum,> 128 µg/mL
same,MIC90,Fusobacterium nucleatum,> 128 µg/mL
same,MIC50,[9],0.5 µg/mL
same,MIC90,[9],2 µg/mL
same,MIC range,[9],0.25 to 2 µg/mL
same,MIC range,Clostridium sordellii,0.06 µg/mL
same,MIC50,Veillonella spp.,32 µg/mL
same,MIC90,Veillonella spp.,128 µg/mL
same,MIC range,Veillonella spp.,16 to 128 µg/mL
same,MIC range,Clostridium innocuum,32 to 128 µg/mL
same,MIC50,Fusobacterium mortiferum,> 128 µg/mL
same,MIC90,Fusobacterium mortiferum,> 128 µg/mL
same,MIC50,Clostridium species,< 0.016 µg/mL
same,MIC90,Clostridium species,0.03 µg/mL
same,MIC90,[10],> 1020 µg/mL
same,MIC50,[10]; All anaerobic gram-negative species (111),256 µg/mL
same,MIC50,Eggerthella lenta,< 0.016 µg/mL
same,MIC90,Eggerthella lenta,< 0.03 µg/mL
same,MIC range,Eggerthella lenta,<0.016 to 0.06 µg/mL
same,MIC50,[11]; Peptoniphilus asaccharolyticus,0.5 µg/mL
same,MIC90,[11]; Peptoniphilus asaccharolyticus,1 µg/mL
same,MIC range,[11],0.25 to 1.0 µg/mL
same,MIC range,[12],0.06 to 8 µg/mL
same,MIC50,Bacteroides fragilis,> 128 µg/mL
same,MIC90,Bacteroides fragilis,> 128 µg/mL
same,MIC50,[13],0.5 µg/mL
same,MIC90,[13],2 µg/mL
same,MIC range,Clostridium glycolicum,0.06 to 1 µg/mL
same,MIC range,[14],4 to 128 µg/mL
